From the kinase profiling compilation of Christmann-Franck et al. (2016)

Key:
Test in all cases: KINOMEscan competition binding
Conditions in all cases: compound 10.0 µM
HUNK (human) = HUNK (human) (UniProt P57058)
IRAK4 (human) = IRAK4 (human) (UniProt Q9NWZ3)
[1] = system: KIT (human), P10721 [V559D/T670I]
PI4KB (human) = PI4KB (human) (UniProt Q9UBF8)
NEK11 (human) = NEK11 (human) (UniProt Q8NG66)
RPS6KB1 (human) = RPS6KB1 (human) (UniProt P23443)
PIP4K2C (human) = PIP4K2C (human) (UniProt Q8TBX8)
Chain of PIP4K2C (human) (Q8TBX8 whole entry, looked up): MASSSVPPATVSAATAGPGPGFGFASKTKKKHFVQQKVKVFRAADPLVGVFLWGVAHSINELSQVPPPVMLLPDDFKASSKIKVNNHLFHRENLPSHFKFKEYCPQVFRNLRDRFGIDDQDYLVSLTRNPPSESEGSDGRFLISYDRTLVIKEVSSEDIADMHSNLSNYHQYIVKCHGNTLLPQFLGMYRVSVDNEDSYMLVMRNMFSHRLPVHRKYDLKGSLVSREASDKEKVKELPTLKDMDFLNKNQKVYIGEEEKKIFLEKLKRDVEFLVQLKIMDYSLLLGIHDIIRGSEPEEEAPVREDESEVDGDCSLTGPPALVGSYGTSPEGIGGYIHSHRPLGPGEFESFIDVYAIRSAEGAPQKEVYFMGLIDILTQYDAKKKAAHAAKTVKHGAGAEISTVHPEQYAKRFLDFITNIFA

ROCK1 (human) = ROCK1 (human) (UniProt Q13464)
Chain of ROCK1 (human) (Q13464 whole entry, looked up): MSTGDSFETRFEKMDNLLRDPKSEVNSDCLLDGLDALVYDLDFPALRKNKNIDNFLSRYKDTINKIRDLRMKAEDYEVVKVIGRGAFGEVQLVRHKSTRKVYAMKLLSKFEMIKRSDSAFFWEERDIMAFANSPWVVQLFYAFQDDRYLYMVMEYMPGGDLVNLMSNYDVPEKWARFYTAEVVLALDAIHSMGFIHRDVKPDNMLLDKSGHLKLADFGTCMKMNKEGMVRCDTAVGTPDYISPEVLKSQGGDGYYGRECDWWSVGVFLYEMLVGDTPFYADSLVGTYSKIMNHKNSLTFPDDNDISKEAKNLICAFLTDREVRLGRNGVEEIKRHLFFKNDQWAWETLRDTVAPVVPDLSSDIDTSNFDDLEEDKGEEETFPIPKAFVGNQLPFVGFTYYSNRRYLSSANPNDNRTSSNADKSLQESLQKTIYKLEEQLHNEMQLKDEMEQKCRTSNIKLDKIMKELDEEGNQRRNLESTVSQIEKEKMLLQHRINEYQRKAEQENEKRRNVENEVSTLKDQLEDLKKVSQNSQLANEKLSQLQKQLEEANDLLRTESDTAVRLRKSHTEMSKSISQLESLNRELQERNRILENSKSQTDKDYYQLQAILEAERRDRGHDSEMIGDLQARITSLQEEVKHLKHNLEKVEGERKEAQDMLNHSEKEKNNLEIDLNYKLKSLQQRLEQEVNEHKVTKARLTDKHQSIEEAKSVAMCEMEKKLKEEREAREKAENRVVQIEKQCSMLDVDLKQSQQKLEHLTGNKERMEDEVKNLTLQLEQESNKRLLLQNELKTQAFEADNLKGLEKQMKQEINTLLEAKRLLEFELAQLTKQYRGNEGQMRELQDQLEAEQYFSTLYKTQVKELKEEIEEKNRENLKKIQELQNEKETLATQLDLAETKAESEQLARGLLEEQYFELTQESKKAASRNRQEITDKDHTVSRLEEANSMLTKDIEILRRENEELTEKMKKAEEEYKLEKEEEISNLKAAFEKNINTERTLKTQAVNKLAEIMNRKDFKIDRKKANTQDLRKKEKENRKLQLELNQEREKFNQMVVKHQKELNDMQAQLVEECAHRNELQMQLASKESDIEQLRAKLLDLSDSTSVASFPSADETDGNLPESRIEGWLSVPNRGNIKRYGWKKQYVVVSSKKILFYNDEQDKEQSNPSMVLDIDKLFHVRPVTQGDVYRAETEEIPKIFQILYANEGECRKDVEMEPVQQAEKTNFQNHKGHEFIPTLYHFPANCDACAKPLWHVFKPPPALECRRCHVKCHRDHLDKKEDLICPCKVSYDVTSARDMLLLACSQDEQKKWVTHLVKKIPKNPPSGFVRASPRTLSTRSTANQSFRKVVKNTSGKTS

[2] = system: EGFR (human), P00533 [P753S; 747-752 del]
CASK (human) = CASK (human) (UniProt O14936)
CDK2 (human) = CDK2 (human) (UniProt P24941)
MAK (human) = MAK (human) (UniProt P20794)
TRPM6 (human) = TRPM6 (human) (UniProt Q9BX84)
EPHB6 (human) = EPHB6 (human) (UniProt O15197)
[3] = system: FLT3 (human), P36888 [K663Q]
[4] = system: EGFR (human), P00533 [746-750 del]
[5] = system: ABL1 (human), P00519 [E255K]
PIP5K1C (human) = PIP5K1C (human) (UniProt O60331)
HIPK4 (human) = HIPK4 (human) (UniProt Q8NE63)
NEK4 (human) = NEK4 (human) (UniProt P51957)
MAP3K15 (human) = MAP3K15 (human) (UniProt Q6ZN16)
EGFR (human) = EGFR (human) (UniProt P00533)
CDK13 (human) = CDK13 (human) (UniProt Q14004)
ERN1 (human) = ERN1 (human) (UniProt O75460)
[6] = system: PIK3CA (human), P42336 [Q546K]
CDKL5 (human) = CDKL5 (human) (UniProt O76039)
MYLK3 (human) = MYLK3 (human) (UniProt Q32MK0)
Chain of MYLK3 (human) (Q32MK0 whole entry, looked up): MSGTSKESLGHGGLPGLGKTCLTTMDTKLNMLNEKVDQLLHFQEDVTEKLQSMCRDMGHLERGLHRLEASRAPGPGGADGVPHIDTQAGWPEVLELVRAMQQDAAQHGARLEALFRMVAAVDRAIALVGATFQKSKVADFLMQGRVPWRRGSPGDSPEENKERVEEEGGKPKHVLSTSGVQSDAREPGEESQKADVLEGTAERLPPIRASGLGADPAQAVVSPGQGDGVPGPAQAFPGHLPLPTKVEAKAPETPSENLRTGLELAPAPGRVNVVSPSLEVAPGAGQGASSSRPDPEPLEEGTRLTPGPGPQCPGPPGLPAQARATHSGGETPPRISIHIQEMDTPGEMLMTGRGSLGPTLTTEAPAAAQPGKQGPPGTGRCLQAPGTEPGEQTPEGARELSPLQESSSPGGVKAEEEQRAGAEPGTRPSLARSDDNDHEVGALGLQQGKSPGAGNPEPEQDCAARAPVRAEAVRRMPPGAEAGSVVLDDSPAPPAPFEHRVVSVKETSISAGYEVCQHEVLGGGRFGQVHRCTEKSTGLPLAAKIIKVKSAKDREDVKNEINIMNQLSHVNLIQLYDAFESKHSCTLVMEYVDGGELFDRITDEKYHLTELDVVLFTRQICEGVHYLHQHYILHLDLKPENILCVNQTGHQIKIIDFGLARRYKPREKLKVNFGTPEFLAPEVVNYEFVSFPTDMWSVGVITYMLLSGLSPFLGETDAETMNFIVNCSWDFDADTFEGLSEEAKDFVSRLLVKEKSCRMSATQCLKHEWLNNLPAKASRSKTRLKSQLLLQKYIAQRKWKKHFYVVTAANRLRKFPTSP

STK32A (human) = STK32A (human) (UniProt Q8WU08)
MTOR (human) = MTOR (human) (UniProt P42345)
YSK4 (human) = YSK4 (human) (UniProt Q56UN5)
CSNK1A1 (human) = CSNK1A1 (human) (UniProt P48729)
MAP3K13 (human) = MAP3K13 (human) (UniProt O43283)
Chain of MAP3K13 (human) (O43283 whole entry, looked up): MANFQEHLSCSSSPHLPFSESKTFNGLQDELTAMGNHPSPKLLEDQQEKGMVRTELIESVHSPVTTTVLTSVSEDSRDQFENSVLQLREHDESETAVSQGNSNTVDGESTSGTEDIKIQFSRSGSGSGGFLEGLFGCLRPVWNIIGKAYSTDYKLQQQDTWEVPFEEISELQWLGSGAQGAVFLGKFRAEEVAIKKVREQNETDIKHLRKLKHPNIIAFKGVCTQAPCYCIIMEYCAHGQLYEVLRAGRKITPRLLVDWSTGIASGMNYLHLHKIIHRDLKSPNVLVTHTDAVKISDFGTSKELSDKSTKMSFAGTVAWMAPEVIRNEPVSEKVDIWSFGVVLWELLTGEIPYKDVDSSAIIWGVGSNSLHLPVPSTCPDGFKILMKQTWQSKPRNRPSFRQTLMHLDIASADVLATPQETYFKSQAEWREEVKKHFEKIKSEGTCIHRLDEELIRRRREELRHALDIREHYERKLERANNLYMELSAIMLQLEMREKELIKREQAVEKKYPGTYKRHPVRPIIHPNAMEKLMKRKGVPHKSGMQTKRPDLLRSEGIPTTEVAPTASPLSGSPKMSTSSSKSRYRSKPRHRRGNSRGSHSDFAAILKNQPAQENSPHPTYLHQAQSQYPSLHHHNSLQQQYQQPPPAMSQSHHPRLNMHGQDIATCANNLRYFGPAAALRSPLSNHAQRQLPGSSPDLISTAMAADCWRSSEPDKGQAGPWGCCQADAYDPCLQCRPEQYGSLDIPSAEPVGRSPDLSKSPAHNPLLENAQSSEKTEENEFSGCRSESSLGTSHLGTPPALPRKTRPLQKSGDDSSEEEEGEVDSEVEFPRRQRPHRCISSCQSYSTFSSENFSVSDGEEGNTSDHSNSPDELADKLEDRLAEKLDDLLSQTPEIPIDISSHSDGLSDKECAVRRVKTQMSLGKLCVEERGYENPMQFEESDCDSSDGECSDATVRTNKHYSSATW

STK39 (human) = STK39 (human) (UniProt Q9UEW8)
[7] = system: PIK3CA (human), P42336 [E545A]
SGK3 (human) = SGK3 (human) (UniProt Q96BR1)
SBK1 (human) = SBK1 (human) (UniProt Q52WX2)
MET (human) = MET (human) (UniProt P08581)
Chain of MET (human) (P08581 whole entry, looked up): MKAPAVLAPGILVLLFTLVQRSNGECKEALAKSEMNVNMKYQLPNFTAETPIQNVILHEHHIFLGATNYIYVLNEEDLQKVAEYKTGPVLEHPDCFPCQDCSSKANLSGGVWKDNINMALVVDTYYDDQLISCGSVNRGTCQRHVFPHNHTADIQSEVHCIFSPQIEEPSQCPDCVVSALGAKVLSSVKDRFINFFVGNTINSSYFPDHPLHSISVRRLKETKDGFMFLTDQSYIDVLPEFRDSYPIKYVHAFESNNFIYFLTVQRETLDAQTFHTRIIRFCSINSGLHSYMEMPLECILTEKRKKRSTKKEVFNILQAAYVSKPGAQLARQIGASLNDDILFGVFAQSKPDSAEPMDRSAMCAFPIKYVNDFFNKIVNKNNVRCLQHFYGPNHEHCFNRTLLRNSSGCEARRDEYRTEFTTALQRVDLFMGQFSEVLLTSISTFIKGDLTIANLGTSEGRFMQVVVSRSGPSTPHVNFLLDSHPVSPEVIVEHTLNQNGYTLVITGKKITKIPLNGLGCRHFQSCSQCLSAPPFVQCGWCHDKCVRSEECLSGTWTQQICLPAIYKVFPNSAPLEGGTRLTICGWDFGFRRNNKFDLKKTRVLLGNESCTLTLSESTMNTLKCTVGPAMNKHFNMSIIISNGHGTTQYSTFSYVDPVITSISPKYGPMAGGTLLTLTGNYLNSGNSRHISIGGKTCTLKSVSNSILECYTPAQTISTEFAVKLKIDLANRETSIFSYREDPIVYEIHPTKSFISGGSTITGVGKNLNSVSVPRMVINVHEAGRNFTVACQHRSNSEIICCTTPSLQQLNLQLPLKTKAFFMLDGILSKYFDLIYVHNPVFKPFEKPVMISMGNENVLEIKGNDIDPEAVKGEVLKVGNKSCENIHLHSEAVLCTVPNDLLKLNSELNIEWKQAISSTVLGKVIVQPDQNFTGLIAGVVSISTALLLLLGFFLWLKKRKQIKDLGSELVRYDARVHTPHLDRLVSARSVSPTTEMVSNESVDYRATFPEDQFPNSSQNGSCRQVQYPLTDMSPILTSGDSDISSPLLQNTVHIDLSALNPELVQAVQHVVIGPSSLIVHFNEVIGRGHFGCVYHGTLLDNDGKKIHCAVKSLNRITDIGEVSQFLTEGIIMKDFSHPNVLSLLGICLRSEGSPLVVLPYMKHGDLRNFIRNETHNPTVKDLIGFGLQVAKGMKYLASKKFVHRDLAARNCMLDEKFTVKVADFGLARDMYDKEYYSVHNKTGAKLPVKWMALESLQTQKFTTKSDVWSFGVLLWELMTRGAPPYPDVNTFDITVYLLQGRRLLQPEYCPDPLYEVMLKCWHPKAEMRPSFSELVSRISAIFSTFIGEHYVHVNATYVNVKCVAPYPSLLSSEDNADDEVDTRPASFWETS

ERBB3 (human) = ERBB3 (human) (UniProt P21860)
MAP3K2 (human) = MAP3K2 (human) (UniProt Q9Y2U5)
CDK4 CCND1 (human) = CDK4 CCND1 (human) (UniProt P11802+P24385)

SMILES	kinase still bound, per cent of control (HUNK (human))	kinase still bound, per cent of control (IRAK4 (human))	kinase still bound, per cent of control (RPS6KB1 (human))	kinase still bound, per cent of control (PIP4K2C (human))	kinase still bound, per cent of control (ROCK1 (human))	kinase still bound, per cent of control (CASK (human))	kinase still bound, per cent of control (MAK (human))	kinase still bound, per cent of control (EPHB6 (human))	kinase still bound, per cent of control (PIP5K1C (human))	kinase still bound, per cent of control (NEK4 (human))	kinase still bound, per cent of control (MAP3K15 (human))	kinase still bound, per cent of control (CDK13 (human))	kinase still bound, per cent of control (ERN1 (human))	kinase still bound, per cent of control (CDKL5 (human))	kinase still bound, per cent of control (STK32A (human))	kinase still bound, per cent of control (CSNK1A1 (human))	kinase still bound, per cent of control (MAP3K13 (human))	kinase still bound, per cent of control (STK39 (human))	kinase still bound, per cent of control (SGK3 (human))	kinase still bound, per cent of control (SBK1 (human))	other results
COc1cc(N2CCN(C)CC2)ccc1Nc1nc(N)c(C(=O)c2c(Cl)cccc2Cl)s1	100%	96%	89%	46%	79%	35%	26%	63%	85%	96%	51%	83%	99%	100%	88%	84%	100%	66%	100%	80%	kinase still bound, per cent of control [1]: 100%; kinase still bound, per cent of control (PI4KB (human)): 100%; kinase still bound, per cent of control (NEK11 (human)): 65%; kinase still bound, per cent of control [2]: 89%; kinase still bound, per cent of control (CDK2 (human)): 79%; kinase still bound, per cent of control (TRPM6 (human)): 5.2%; kinase still bound, per cent of control [3]: 100%; kinase still bound, per cent of control [4]: 85%; kinase still bound, per cent of control [5]: 90%; kinase still bound, per cent of control (HIPK4 (human)): 24%; kinase still bound, per cent of control (EGFR (human)): 100%; kinase still bound, per cent of control [6]: 78%; kinase still bound, per cent of control (MYLK3 (human)): 100%; kinase still bound, per cent of control (MTOR (human)): 100%; kinase still bound, per cent of control (YSK4 (human)): 98%; kinase still bound, per cent of control [7]: 100%; kinase still bound, per cent of control (MET (human)): 100%; kinase still bound, per cent of control (ERBB3 (human)): 50%; kinase still bound, per cent of control (MAP3K2 (human)): 79%
Nc1ccc(-c2ccc3ncc4ccc(=O)n(-c5cccc(C(F)(F)F)c5)c4c3c2)cn1	100%	85%	86%	21%	79%	67%	96%	82%	51%	100%	100%	100%	100%	100%	100%	94%	100%	100%	100%	100%	kinase still bound, per cent of control [1]: 68%; kinase still bound, per cent of control (NEK11 (human)): 80%; kinase still bound, per cent of control (CDK4 CCND1 (human)): 100%; kinase still bound, per cent of control [2]: 98%; kinase still bound, per cent of control (CDK2 (human)): 67%; kinase still bound, per cent of control (TRPM6 (human)): 71%; kinase still bound, per cent of control [3]: 18%; kinase still bound, per cent of control [4]: 92%; kinase still bound, per cent of control [5]: 76%; kinase still bound, per cent of control (HIPK4 (human)): 44%; kinase still bound, per cent of control (EGFR (human)): 100%; kinase still bound, per cent of control (MYLK3 (human)): 100%; kinase still bound, per cent of control (YSK4 (human)): 37%; kinase still bound, per cent of control (MET (human)): 100%; kinase still bound, per cent of control (ERBB3 (human)): 50%; kinase still bound, per cent of control (MAP3K2 (human)): 78%
CCOc1cc2ncc(C#N)c(Nc3ccc(OCc4ccccn4)c(Cl)c3)c2cc1NC(=O)/C=C/CN(C)C	86%	96%	100%	100%	100%	100%	100%	83%	100%	100%	100%	100%	80%	100%	77%	100%	86%	84%	100%	100%	kinase still bound, per cent of control (PI4KB (human)): 100%; kinase still bound, per cent of control (NEK11 (human)): 64%; kinase still bound, per cent of control (CDK4 CCND1 (human)): 71%; kinase still bound, per cent of control [5]: 100%; kinase still bound, per cent of control (HIPK4 (human)): 42%; kinase still bound, per cent of control [6]: 100%; kinase still bound, per cent of control (MYLK3 (human)): 86%; kinase still bound, per cent of control (MTOR (human)): 100%; kinase still bound, per cent of control [7]: 100%; kinase still bound, per cent of control (MET (human)): 84%; kinase still bound, per cent of control (ERBB3 (human)): 0.1%
CCCS(=O)(=O)Nc1ccc(F)c(C(=O)c2c[nH]c3ncc(-c4ccc(Cl)cc4)cc23)c1F	9.1%	86%	86%	100%	85%	80%	100%	5.8%	44%	95%	100%	100%	82%	100%	100%	90%	100%	100%	71%	92%	kinase still bound, per cent of control [1]: 60%; kinase still bound, per cent of control (PI4KB (human)): 0.7%; kinase still bound, per cent of control (CDK4 CCND1 (human)): 52%; kinase still bound, per cent of control [2]: 78%; kinase still bound, per cent of control (TRPM6 (human)): 100%; kinase still bound, per cent of control (EGFR (human)): 70%; kinase still bound, per cent of control [6]: 86%; kinase still bound, per cent of control (MTOR (human)): 100%; kinase still bound, per cent of control (YSK4 (human)): 53%; kinase still bound, per cent of control [7]: 95%; kinase still bound, per cent of control (MET (human)): 53%; kinase still bound, per cent of control (ERBB3 (human)): 73%; kinase still bound, per cent of control (MAP3K2 (human)): 100%
